Results as given in patent publication US10221227B2, “Peptide for promoting osteogenic differentiation or vascularization and use thereof” (INDUSTRY FOUNDATION OF CHONNAM NATIONAL UNIVERSITY, priority 2015, dated 2019).
Ends that are not written are not given here.

What was measured:
mesenchymal stem cells = assay: Measurement of mineralization by Alizarin Red staining; format: cell-based, Balb/c mouse; settings: cells added with 1 μg/μL of BFP 5; tested at 0.01, 0.1, 1 and 10 μg/μL, osteogenic differentiation medium, two additional days
Method: Mesenchymal stem cells (1×10^4), which were cloned from Balb/c mouse bone marrow stromal cells) were aliquoted into 10% FBS-containing DMEM and cultured in an atmosphere (about 37° C., 5% CO2) for 3 days, and thereby the mesenchymal stem cells to be used as osteoblasts in the present experiment were prepared. Osteogenic differentiation medium (hereinafter, “ODM”) consists of DMEM which contains 50 μg/mL of ascorbic acid, 10^−8 M dexamethasone, 10 mM β-glycerophosphate, etc.
The differentiation of the mesenchymal stem cells into osteoblasts causes calcium accumulation. Here, the degree of calcium accumulation refers to the degree of differentiation of osteoblasts, and the degree of accumulation of calcium ions can be confirmed by observing the degree of staining of the cells that are stained red, via Alizarin Red staining. In this regard, the mineralization was measured via Alizarin Red staining. That is, as the differentiation into osteoblasts are promoted there are more regions that can be stained by Alizarin Red. Accordingly, the degree of osteogenic differentiation can be confirmed by adding Alizarin Red to the osteogenic differentiation medium, treating with the peptide of SEQ ID NO: 1 (BFP 5), and observing the degree of Alizarin Red staining. […]

VEGF = assay: Effect on vascularization: expression of VEGF (FIG. 9); format: cell-based; settings: cells treated with BFP 5; alongside VEGF, FGF, SDF-1a, SDF-1g
[1] = test system: alkaline phosphatase and Osterix; assay: Level of proteins expressed in osteoblasts (FIG. 6); format: cell-based; settings: FIG. 6, protein level
[2] = test system: Runx2, alkaline phosphatase, Osteopontin, collagen type 1, DLX5, and Osterix; assay: Expression of osteoblast-specific genes under a fluorescent microscope using antibodies (FIG. 5); format: cell-based; settings: cells treated with BFP 5, fluorescent microscope using antibodies
Text: An osteoblast-specific protein is expressed upon differentiation into osteoblasts. When the antibody to the protein was reacted to cells and the degree of binding was confirmed by a fluorescent microscope.

alkaline phosphatase = settings: at 1 μg/μL of BFP 5; RT-PCR / enzyme activity kit
Osterix = Osterix expression at varied concentrations of BFP 5 (FIG. 8); format: cell-based

With “PPRACPTARALCEIR (cysteine pairing not given here) [SDF-1d-derived peptide consisting of 15 amino acids, named bone forming peptide 5]” as the sequence, how does the “Alizarin Red staining (mineralization accumulated via osteogenic differentiation)” value (mesenchymal stem cells) read?
The value was “strongest staining”.

What about the “expression of VEGF, a protein associated with vascularization” value (VEGF) of the same sequence?
Its value is “strong expression”.

And the “Osterix protein expressed in osteoblasts” value [1]?
The value was “strongly expressed”.

And the “alkaline phosphatase protein expressed in osteoblasts” value [1]?
Its value is “strongly expressed”.

And the “expression of DLX5” value [2]?
Its value is “strongly expressed”.

And the “expression of Osteopontin” value [2]?
Its value is “strongly expressed”.

And the “expression of Osterix” value [2]?
The value was “strongly expressed”.

What about the “expression of Runx2” value [2] of the same sequence?
Its value is “strongly expressed”.

What about the “expression of alkaline phosphatase” value [2] of the same sequence?
Its value is “strongly expressed”.

And the “expression of collagen type 1” value [2]?
Its value is “strongly expressed”.

And the “expression of alkaline phosphatase” value (alkaline phosphatase)?
The value was “strong expression”.

What about the “concentration of BFP 5 at which expression (Osterix) is at the highest level” value (Osterix) of the same sequence?
The value was 0.1 µg/mL.
